According to ChEMBL document CHEMBL3044718, “Effect of phenolic compounds on growth and ligninolytic enzyme production in Botryosphaeria isolates” (2013):
Values after ≈ are worked out from the molar mass of the structure shown. Active and inactive are the calls of the source. The calls are words filed in the database; no cut-off is given here.

Assays:
Lasiodiplodia theobromae [1] = experiment: Decrease in Lasiodiplodia theobromae ligninolytic enzyme production assessed as pectinase activity using pectin as substrate at 25 mM measured at 28 degC after 4 days; format: functional; conditions: 96 h
Diplodia seriata [2] = experiment: Inhibition of Diplodia seriata (Schwein.) Shoemaker mycelium growth at 10 mM measured at 28 degC after 4 days; format: functional, organism-based
Neofusicoccum ribis [3] = experiment: Inhibition of Neofusicoccum ribis mycelium growth at 25 mM measured at 28 degC after 4 days; format: functional; conditions: 96 h, read-out: GI
Lasiodiplodia theobromae [4] = experiment: Decrease in Lasiodiplodia theobromae mycelium biomass production measured at 28 degC after 4 days by gravimetric analysis; format: functional
Lasiodiplodia theobromae [5] = experiment: Inhibition of Lasiodiplodia theobromae mycelium growth at 25 mM measured at 28 degC after 4 days; format: functional; conditions: 96 h, read-out: GI
Botryosphaeria dothidea [6] = experiment: Inhibition of Botryosphaeria dothidea mycelium growth at 10 mM measured at 28 degC after 4 days; format: functional, organism-based
Lasiodiplodia theobromae [7] = experiment: Decrease in Lasiodiplodia theobromae ligninolytic enzyme production assessed as laccase activity using ABTS as substrate at 1 mM measured at 28 degC after 4 days; format: functional; conditions: 96 h
Neofusicoccum ribis [8] = experiment: Decrease in Neofusicoccum ribis ligninolytic enzyme production assessed as laccase activity using ABTS as substrate at 1 mM measured at 28 degC after 4 days; format: functional; conditions: 96 h
Botryosphaeria dothidea [9] = experiment: Decrease in Botryosphaeria dothidea ligninolytic enzyme production assessed as laccase activity using ABTS as substrate at 1 mM measured at 28 degC after 4 days; format: functional
Botryosphaeria dothidea [10] = experiment: Decrease in Botryosphaeria dothidea ligninolytic enzyme production assessed as pectinase activity using pectin as substrate at 1 mM measured at 28 degC after 4 days; format: functional, organism-based
Lasiodiplodia theobromae [11] = experiment: Inhibition of Lasiodiplodia theobromae mycelium growth measured at 28 degC after 4 days; format: functional
Diplodia seriata [12] = experiment: Decrease in Diplodia seriata (Schwein.) Shoemaker mycelium biomass production measured at 28 degC after 4 days by gravimetric analysis; format: functional
Neofusicoccum ribis [13] = experiment: Inhibition of Neofusicoccum ribis mycelium growth measured at 28 degC after 4 days; format: functional
Neofusicoccum ribis [14] = experiment: Decrease in Neofusicoccum ribis ligninolytic enzyme production assessed as pectinase activity using pectin as substrate measured at 28 degC after 4 days; format: functional, organism-based
Botryosphaeria dothidea [15] = experiment: Inhibition of Botryosphaeria dothidea mycelium growth measured at 28 degC after 4 days; format: functional
Botryosphaeria dothidea [16] = experiment: Decrease in Botryosphaeria dothidea ligninolytic enzyme production assessed as laccase activity using ABTS as substrate measured at 28 degC after 4 days; format: functional, organism-based
Diplodia seriata [17] = experiment: Inhibition of Diplodia seriata (Schwein.) Shoemaker mycelium growth measured at 28 degC after 4 days; format: functional
Diplodia seriata [18] = experiment: Decrease in Diplodia seriata (Schwein.) Shoemaker ligninolytic enzyme production assessed as laccase activity using ABTS as substrate at 1 mM measured at 28 degC after 4 days; format: functional; conditions: 96 h
Neofusicoccum ribis [19] = experiment: Inhibition of Neofusicoccum ribis mycelium growth at 20 mM measured at 28 degC after 4 days; format: functional, organism-based
Diplodia seriata [20] = experiment: Decrease in Diplodia seriata (Schwein.) Shoemaker ligninolytic enzyme production assessed as pectinase activity using pectin as substrate at 15 mM measured at 28 degC after 4 days; format: functional, organism-based
Lasiodiplodia theobromae [21] = experiment: Inhibition of Lasiodiplodia theobromae mycelium growth at 15 mM measured at 28 degC after 4 days; format: functional; conditions: 96 h, read-out: GI
Diplodia seriata [22] = experiment: Inhibition of Diplodia seriata (Schwein.) Shoemaker mycelium growth at 15 mM measured at 28 degC after 4 days; format: functional, organism-based
Neofusicoccum ribis [23] = experiment: Decrease in Neofusicoccum ribis mycelium biomass production at 25 mM measured at 28 degC after 4 days by gravimetric analysis; format: functional; conditions: 96 h
Diplodia seriata [24] = experiment: Decrease in Diplodia seriata (Schwein.) Shoemaker ligninolytic enzyme production assessed as pectinase activity using pectin as substrate at 1 mM measured at 28 degC after 4 days; format: functional, organism-based
Botryosphaeria dothidea [25] = experiment: Decrease in Botryosphaeria dothidea ligninolytic enzyme production assessed as laccase activity using ABTS as substrate at 25 mM measured at 28 degC after 4 days; format: functional; conditions: 96 h
Phellinus tremulae = experiment: Inhibition of Phellinus tremulae mycelium growth; format: functional
Lasiodiplodia theobromae [26] = experiment: Inhibition of Lasiodiplodia theobromae mycelium growth at 20 mM measured at 28 degC after 4 days; format: functional; conditions: 96 h, read-out: GI
Botryosphaeria dothidea [27] = experiment: Decrease in Botryosphaeria dothidea ligninolytic enzyme production assessed as laccase activity using ABTS as substrate at 5 mM measured at 28 degC after 4 days; format: functional
Botryosphaeria dothidea [28] = experiment: Decrease in Botryosphaeria dothidea ligninolytic enzyme production assessed as laccase activity using ABTS as substrate at 15 mM measured at 28 degC after 4 days; format: functional, organism-based
Botryosphaeria dothidea [29] = experiment: Inhibition of Botryosphaeria dothidea mycelium growth at 25 mM measured at 28 degC after 4 days; format: functional; conditions: 96 h, read-out: GI
Neofusicoccum ribis [30] = experiment: Inhibition of Neofusicoccum ribis mycelium growth at 15 mM measured at 28 degC after 4 days; format: functional, organism-based
Botryosphaeria dothidea [31] = experiment: Inhibition of Botryosphaeria dothidea mycelium growth at 20 mM measured at 28 degC after 4 days; format: functional, organism-based
Diplodia seriata [32] = experiment: Inhibition of Diplodia seriata (Schwein.) Shoemaker mycelium growth at 25 mM measured at 28 degC after 4 days; format: functional; conditions: 96 h, read-out: GI

| SMILES | inhibition at 25000 µM (Lasiodiplodia theobromae [1]) | inhibition of growth at 25000 µM (Neofusicoccum ribis [3]) | inhibition (INH) (Lasiodiplodia theobromae [4]) | inhibition of growth at 25000 µM (Lasiodiplodia theobromae [5]) | inhibition at 1000 µM (Lasiodiplodia theobromae [7]) | inhibition (Botryosphaeria dothidea [10]) | MIC (Lasiodiplodia theobromae [11]; 96 h) | inhibition (INH) (Diplodia seriata [12]) | MIC (Neofusicoccum ribis [13]; 96 h) | inhibition (Neofusicoccum ribis [14]) | MIC (Botryosphaeria dothidea [15]; 96 h) | inhibition (Botryosphaeria dothidea [16]) | MIC (Diplodia seriata [17]; 96 h) | growth inhibition (GI) (Neofusicoccum ribis [19]) | growth inhibition (GI) (Diplodia seriata [22]) | inhibition at 25000 µM (Neofusicoccum ribis [23]) | other results |
| --- | --- | --- | --- | --- | --- | --- | --- | --- | --- | --- | --- | --- | --- | --- | --- | --- | --- |
| O=C(O)/C=C/c1ccc(O)cc1 [COUMARIC ACID] | 57% | 81% | 58% | 100% | 71% | inactive | 5 mM (≈ 821 µg/mL) | 58% | 5 mM (≈ 821 µg/mL) | inactive | 5 mM (≈ 821 µg/mL) | Active | 5 mM (≈ 821 µg/mL) | – | – | – | growth inhibition (GI) (Diplodia seriata [2]): Active; growth inhibition (GI) (Botryosphaeria dothidea [6]): Active; inhibition at 1000 µM (Neofusicoccum ribis [8]): 71%; inhibition at 1000 µM (Botryosphaeria dothidea [9]; 96 h): 71%; inhibition at 1000 µM (Diplodia seriata [18]): 71% |
| COc1ccccc1O [GUAIACOL] | 57% | – | 58% | – | 58% | – | 5 mM (≈ 621 µg/mL) | 58% | 5 mM (≈ 621 µg/mL) | inactive | 5 mM (≈ 621 µg/mL) | Active | 5 mM (≈ 621 µg/mL) | Active | Active | – | inhibition (Diplodia seriata [20]): Active; inhibition (Botryosphaeria dothidea [9]): inactive; inhibition of growth at 15000 µM (Lasiodiplodia theobromae [21]): 100% |
| O=C(O)c1ccccc1 [BENZOIC ACID] | 57% | – | – | – | 58% | inactive | 5 mM (≈ 611 µg/mL) | – | 5 mM (≈ 611 µg/mL) | inactive | 5 mM (≈ 611 µg/mL) | – | 5 mM (≈ 611 µg/mL) | Active | – | 50% | growth inhibition (GI) (Diplodia seriata [2]): Active; growth inhibition (GI) (Botryosphaeria dothidea [6]): Active; inhibition (Diplodia seriata [24]): Active; inhibition at 25000 µM (Botryosphaeria dothidea [25]): 96%; MIC (Phellinus tremulae): 800 µg/mL (≈ 6.55 mM); inhibition of growth at 20000 µM (Lasiodiplodia theobromae [26]): 100% |
| COc1cc(/C=C/C(=O)O)ccc1O [FERULATE] | 57% | 74% | 58% | 81% | 82% | inactive | 5 mM (≈ 971 µg/mL) | 58% | 5 mM (≈ 971 µg/mL) | inactive | 5 mM (≈ 971 µg/mL) | Active | 5 mM (≈ 971 µg/mL) | – | Active | – | inhibition at 1000 µM (Neofusicoccum ribis [8]): 82%; inhibition at 5000 µM (Botryosphaeria dothidea [27]; 96 h): 90% |
| COc1cc(C(=O)O)ccc1O [VANILLIC ACID] | 57% | 83% | 58% | 52% | 58% | inactive | 5 mM (≈ 841 µg/mL) | 58% | 5 mM (≈ 841 µg/mL) | inactive | 5 mM (≈ 841 µg/mL) | Active | 5 mM (≈ 841 µg/mL) | – | Active | 50% | inhibition (Botryosphaeria dothidea [28]): Active; inhibition of growth at 25000 µM (Botryosphaeria dothidea [29]): 93%; inhibition (Botryosphaeria dothidea [27]): inactive |
| COc1cccc(OC)c1O [SYRINGOL] | 57% | – | 58% | – | 58% | inactive | 5 mM (≈ 771 µg/mL) | 58% | 5 mM (≈ 771 µg/mL) | inactive | 5 mM (≈ 771 µg/mL) | Active | 5 mM (≈ 771 µg/mL) | – | Active | 50% | inhibition of growth at 15000 µM (Lasiodiplodia theobromae [21]): 100%; growth inhibition (GI) (Neofusicoccum ribis [30]): Active; growth inhibition (GI) (Botryosphaeria dothidea [31]): Active |
| O=C(O)c1ccccc1O [SALICYLIC ACID] | 57% | – | 58% | 100% | 58% | inactive | 5 mM (≈ 691 µg/mL) | 58% | 5 mM (≈ 691 µg/mL) | inactive | 5 mM (≈ 691 µg/mL) | Active | 5 mM (≈ 691 µg/mL) | Active | Active | 50% | inhibition (Botryosphaeria dothidea [28]): Active |
| COc1cc(C(=O)O)cc(OC)c1O [SYRINGIC ACID] | 57% | – | – | – | 58% | inactive | – | – | – | inactive | – | – | – | – | – | – | inhibition (Lasiodiplodia theobromae [4]): inactive; MIC (Lasiodiplodia theobromae [11]): inactive; inhibition (Diplodia seriata [12]): inactive; inhibition (Diplodia seriata [24]): Active; MIC (Neofusicoccum ribis [13]): inactive; MIC (Botryosphaeria dothidea [15]): inactive; MIC (Diplodia seriata [17]): inactive |
| COc1cccc(OC)c1C(=O)O [2,6-DIMETHOXYBENZOIC ACID] | 57% | 86% | 58% | 62% | 58% | inactive | 5 mM (≈ 911 µg/mL) | 58% | 5 mM (≈ 911 µg/mL) | inactive | 5 mM (≈ 911 µg/mL) | Active | 5 mM (≈ 911 µg/mL) | – | – | 50% | inhibition of growth at 25000 µM (Diplodia seriata [32]): 95%; inhibition of growth at 25000 µM (Botryosphaeria dothidea [29]): 95%; inhibition (Botryosphaeria dothidea [27]): inactive |
| Oc1ccccc1O [CATECHOL] | 57% | – | 58% | – | 58% | inactive | 5 mM (≈ 551 µg/mL) | 58% | 5 mM (≈ 551 µg/mL) | inactive | 5 mM (≈ 551 µg/mL) | – | 5 mM (≈ 551 µg/mL) | Active | Active | 100% | inhibition of growth at 20000 µM (Lasiodiplodia theobromae [26]): 100%; growth inhibition (GI) (Botryosphaeria dothidea [31]): Active |
